ChEMBL document CHEMBL3997763 (Medchemcomm, 2016)
Active and inactive are the calls of the source. The rule behind the calls is not given here.

Tests used:
[1] = system: Rattus norvegicus; assay: Hypolipidemic activity in HFD-induced Charles Foster rat chronic hyperlipidemia model assessed as increase in fecal excretion of deoxycholic acid at 100 mg/kg administered via oral gavage for 30 days simultaneously with high fat diet by enzymatic method relative to HFD treated vehicle; assay type: functional
[2] = system: Rattus norvegicus; assay: Toxicity in HFD-induced Charles Foster rat chronic hyperlipidemia model assessed as food intake at 100 mg/kg administered via oral gavage for 30 days simultaneously with high fat diet (reference value: 9.81 +/- 0.61 g/day); assay type: organism-based; conditions: in vivo, 720 h
[3] = system: Rattus norvegicus; assay: Antihyperlipidemic activity in triton WR-1339 induced Charles Foster rat hyperlipidemia model assessed as increase in HDL-C level in serum at 150 mg/kg, po administered simultaneously with triton WR-1339 after 18 hrs by enzymatic method relative to control; assay type: functional
[4] = system: Rattus norvegicus; assay: Hypolipidemic activity in HFD-induced Charles Foster rat assessed as increase in LCAT activity at 100 mg/kg administered as single dose via oral gavage for 30 days simultaneously with high fat diet by photometric method; assay type: functional, organism-based
[5] = Apparent MRT in Sprague-Dawley rat at 100 mg/kg, po administered as single dose by LC-MS/MS analysis; assay type: ADME, organism-based; conditions: in vivo
[6] = system: Rattus norvegicus; assay: Antihyperlipidemic activity in po dosed triton WR-1339 induced Charles Foster rat hyperlipidemia model assessed as increase in HDL-C level in serum administered simultaneously with triton WR-1339 after 18 hrs by enzymatic method relative to control; assay type: functional, organism-based
[7] = biological target: T1, 3-hydroxy-3-methylglutaryl-coenzyme A reductase (Homo sapiens) (UniProt P04035); assay: Inhibition of human HMG-CoA reductase catalytic domain at 1 uM using HMG-CoA as substrate in presence of NADPH by colorimetric method relative to control
T1 sequence (whole entry): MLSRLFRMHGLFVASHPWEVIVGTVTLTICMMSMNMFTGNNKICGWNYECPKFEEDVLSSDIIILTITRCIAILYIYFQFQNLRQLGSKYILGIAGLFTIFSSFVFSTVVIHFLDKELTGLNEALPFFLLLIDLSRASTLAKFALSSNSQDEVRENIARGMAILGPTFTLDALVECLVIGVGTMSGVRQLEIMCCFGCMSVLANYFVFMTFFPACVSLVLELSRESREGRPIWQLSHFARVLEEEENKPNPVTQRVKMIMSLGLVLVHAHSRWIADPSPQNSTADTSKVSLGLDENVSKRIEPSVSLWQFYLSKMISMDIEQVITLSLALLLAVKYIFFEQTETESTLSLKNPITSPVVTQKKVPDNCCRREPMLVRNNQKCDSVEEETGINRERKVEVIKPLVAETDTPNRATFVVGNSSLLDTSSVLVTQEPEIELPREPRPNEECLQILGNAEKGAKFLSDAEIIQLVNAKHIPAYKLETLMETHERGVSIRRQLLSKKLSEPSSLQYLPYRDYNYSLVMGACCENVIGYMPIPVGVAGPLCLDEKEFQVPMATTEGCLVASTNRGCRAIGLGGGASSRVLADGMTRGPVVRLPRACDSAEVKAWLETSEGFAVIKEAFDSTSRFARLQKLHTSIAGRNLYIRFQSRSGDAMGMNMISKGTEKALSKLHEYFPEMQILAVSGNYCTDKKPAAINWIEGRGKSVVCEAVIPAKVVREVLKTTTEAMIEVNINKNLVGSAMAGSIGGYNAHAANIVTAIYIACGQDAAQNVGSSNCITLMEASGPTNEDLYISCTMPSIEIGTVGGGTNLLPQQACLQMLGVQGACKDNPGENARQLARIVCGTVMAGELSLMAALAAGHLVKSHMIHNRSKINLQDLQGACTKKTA

[8] = system: Rattus norvegicus; assay: Hypolipidemic activity in HFD-induced Charles Foster rat assessed as increase in serum HDL-TG at 100 mg/kg administered as single dose via oral gavage for 30 days simultaneously with high fat diet; assay type: functional, organism-based
[9] = biological target: T1, 3-hydroxy-3-methylglutaryl-coenzyme A reductase (Homo sapiens); assay: Inhibition of human HMG-CoA reductase catalytic domain at 20 uM using HMG-CoA as substrate in presence of NADPH by colorimetric method relative to control
[10] = system: Rattus norvegicus; assay: Antihyperlipidemic activity in triton WR-1339 induced Charles Foster rat hyperlipidemia model assessed as inhibition of total cholesterol level in serum at 50 mg/kg, po administered simultaneously with triton WR-1339 after 18 hrs by enzymatic method relative to control; assay type: functional
[11] = system: Rattus norvegicus; assay: Antihyperlipidemic activity in po dosed triton WR-1339 induced Charles Foster rat hyperlipidemia model assessed as inhibition of total cholesterol level in serum administered simultaneously with triton WR-1339 after 18 hrs by enzymatic method relative to control; assay type: functional, organism-based
[12] = system: Rattus norvegicus; assay: Antihyperlipidemic activity in triton WR-1339 induced Charles Foster rat hyperlipidemia model assessed as inhibition of triglyceride level in serum at 150 mg/kg, po administered simultaneously with triton WR-1339 after 18 hrs by enzymatic method relative to control; assay type: functional
[13] = system: Rattus norvegicus; assay: Hypolipidemic activity in HFD-induced Charles Foster rat chronic hyperlipidemia model assessed as reduction in serum AST level at 100 mg/kg administered via oral gavage for 30 days simultaneously with high fat diet by colorimetric method relative to HFD treated vehicle; assay type: functional; conditions: 720 h
[14] = system: Rattus norvegicus; assay: Hypolipidemic activity in HFD-induced Charles Foster rat chronic hyperlipidemia model assessed as increase in fecal excretion of cholic acid at 100 mg/kg administered via oral gavage for 30 days simultaneously with high fat diet by enzymatic method relative to HFD treated vehicle; assay type: functional
[15] = species: Rattus norvegicus; assay: animal or person; assay type: functional; conditions: Charles Foster, po, 18 h
Description: Antihyperlipidemic activity in triton WR-1339 induced Charles Foster rat hyperlipidemia model assessed as inhibition of total cholesterol level in serum at 100 mg/kg, po administered simultaneously with triton WR-1339 after 18 hrs by enzymatic method relative to control

[16] = Stability of the compound in simulated intestinal fluid at 10 uM up to 120 mins by LC-MS/MS analysis
[17] = system: Rattus norvegicus; assay: Antihyperlipidemic activity in triton WR-1339 induced Charles Foster rat hyperlipidemia model assessed as inhibition of total cholesterol level in serum at 150 mg/kg, po administered simultaneously with triton WR-1339 after 18 hrs by enzymatic method relative to control; assay type: functional
[18] = Cmax in Sprague-Dawley rat at 100 mg/kg, po administered as single dose by LC-MS/MS analysis; assay type: ADME, organism-based; design: dose 100 mg/kg, route oral; conditions: in vivo
[19] = system: Rattus norvegicus; assay: Hypolipidemic activity in HFD-induced Charles Foster rat chronic hyperlipidemia model assessed as reduction in liver total cholesterol level at 100 mg/kg administered via oral gavage for 30 days simultaneously with high fat diet by enzymatic method relative to HFD treated vehicle; assay type: functional; conditions: 720 h
[20] = biological target: Albumin (Bos taurus, UniProt P02769); assay: Binding affinity to bovine serum albumin by fluorescence quenching method; assay type: ADME; conditions: cattle, isolated protein
Albumin, sequence (P02769 whole entry): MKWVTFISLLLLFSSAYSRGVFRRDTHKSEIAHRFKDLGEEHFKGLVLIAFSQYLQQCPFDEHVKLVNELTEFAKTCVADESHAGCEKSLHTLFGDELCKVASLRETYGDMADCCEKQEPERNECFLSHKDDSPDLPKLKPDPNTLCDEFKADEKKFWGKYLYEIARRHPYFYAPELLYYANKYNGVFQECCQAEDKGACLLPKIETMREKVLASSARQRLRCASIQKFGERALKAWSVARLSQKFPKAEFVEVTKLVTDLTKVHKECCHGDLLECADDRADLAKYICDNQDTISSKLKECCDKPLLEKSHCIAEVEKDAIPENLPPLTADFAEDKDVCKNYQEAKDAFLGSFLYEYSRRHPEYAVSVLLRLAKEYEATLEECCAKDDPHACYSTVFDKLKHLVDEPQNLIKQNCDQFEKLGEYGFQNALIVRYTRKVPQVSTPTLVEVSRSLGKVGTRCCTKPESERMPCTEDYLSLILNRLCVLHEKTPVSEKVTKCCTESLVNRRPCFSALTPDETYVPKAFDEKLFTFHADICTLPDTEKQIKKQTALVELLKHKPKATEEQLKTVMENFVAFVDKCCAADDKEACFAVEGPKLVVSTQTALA

[21] = system: Rattus norvegicus; assay: Hypolipidemic activity in HFD-induced Charles Foster rat assessed as reduction in serum LDL-TC at 100 mg/kg administered as single dose via oral gavage for 30 days simultaneously with high fat diet; assay type: functional, organism-based
[22] = species: Rattus norvegicus; assay: animal or person; assay type: functional; conditions: Charles Foster, po, 18 h; remark: listed apart in the source
Description: Antihyperlipidemic activity in triton WR-1339 induced Charles Foster rat hyperlipidemia model assessed as inhibition of phospholipid level in serum at 100 mg/kg, po administered simultaneously with triton WR-1339 after 18 hrs by enzymatic method relative to control

[23] = system: Rattus norvegicus; assay: Hypolipidemic activity in HFD-induced Charles Foster rat chronic hyperlipidemia model assessed as reduction in serum total cholesterol level at 100 mg/kg administered via oral gavage for 30 days simultaneously with high fat diet by enzymatic method relative to HFD treated vehicle; assay type: functional; conditions: 720 h
[24] = biological target: T1, 3-hydroxy-3-methylglutaryl-coenzyme A reductase (Homo sapiens); assay: Inhibition of human HMG-CoA reductase catalytic domain using HMG-CoA as substrate in presence of NADPH by colorimetric method

MRT [5]: 4.46 h
inhibition [7]: 19%
inhibition [9]: 63%
Cmax [18]: 79 ng/mL
Activity [20]: Active
inhibition [24]: Dose-dependent effect
SMILES: COc1ccc(-c2cc3cc(C(c4c[nH]c5ccccc45)c4c[nH]c5ccccc45)cc(C(C)(C)C)c3oc2=O)cc1OC
Activity [1]: 39%
Activity [2]: 9.63 g/day
Activity [3]: 25%
Activity [4]: Active
Activity [6]: Dose-dependent effect
Activity [8]: Active
inhibition in vivo at 50 mg/kg [10]: 20%
inhibition [11]: Dose-dependent effect
inhibition in vivo at 150 mg/kg [12]: 33%
inhibition in vivo at 100 mg/kg [13]: 28%
Activity [14]: 31%
inhibition in vivo at 100 mg/kg [15]: 32%
Stability [16]: Stable
inhibition in vivo at 150 mg/kg [17]: 33%
inhibition in vivo at 100 mg/kg [19]: 27%
Activity [21]: Active
inhibition in vivo at 100 mg/kg [22]: 33%
inhibition in vivo at 100 mg/kg [23]: 24%
